Test results reported in publication PMC8199001, “Design, Synthesis, and Biological Evaluation of Novel 6H-Benzo[c]chromen-6-one Derivatives as Potential Phosphodiesterase II Inhibitors” (International Journal of Molecular Sciences, 2021).
“Also recorded” adds a separate entry of the source.

Experiments:
[1] = target: PDE2 (Homo sapiens, UniProt O00408); experiment: In vitro PDE2 enzymatic inhibition assay (Bio-cAMP substrate, AlphaScreen detection); format: biochemical; settings: for PDE2 inhibitory activity (result in words): enzyme level;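 as to all read-outs here: enzyme reaction run 0.5 h, then anti-cAMP acceptor and streptavidin donor beads added for 1 h in the dark before plate reading, compounds serially diluted from DMSO stock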
PDE2, sequence (O00408 whole entry): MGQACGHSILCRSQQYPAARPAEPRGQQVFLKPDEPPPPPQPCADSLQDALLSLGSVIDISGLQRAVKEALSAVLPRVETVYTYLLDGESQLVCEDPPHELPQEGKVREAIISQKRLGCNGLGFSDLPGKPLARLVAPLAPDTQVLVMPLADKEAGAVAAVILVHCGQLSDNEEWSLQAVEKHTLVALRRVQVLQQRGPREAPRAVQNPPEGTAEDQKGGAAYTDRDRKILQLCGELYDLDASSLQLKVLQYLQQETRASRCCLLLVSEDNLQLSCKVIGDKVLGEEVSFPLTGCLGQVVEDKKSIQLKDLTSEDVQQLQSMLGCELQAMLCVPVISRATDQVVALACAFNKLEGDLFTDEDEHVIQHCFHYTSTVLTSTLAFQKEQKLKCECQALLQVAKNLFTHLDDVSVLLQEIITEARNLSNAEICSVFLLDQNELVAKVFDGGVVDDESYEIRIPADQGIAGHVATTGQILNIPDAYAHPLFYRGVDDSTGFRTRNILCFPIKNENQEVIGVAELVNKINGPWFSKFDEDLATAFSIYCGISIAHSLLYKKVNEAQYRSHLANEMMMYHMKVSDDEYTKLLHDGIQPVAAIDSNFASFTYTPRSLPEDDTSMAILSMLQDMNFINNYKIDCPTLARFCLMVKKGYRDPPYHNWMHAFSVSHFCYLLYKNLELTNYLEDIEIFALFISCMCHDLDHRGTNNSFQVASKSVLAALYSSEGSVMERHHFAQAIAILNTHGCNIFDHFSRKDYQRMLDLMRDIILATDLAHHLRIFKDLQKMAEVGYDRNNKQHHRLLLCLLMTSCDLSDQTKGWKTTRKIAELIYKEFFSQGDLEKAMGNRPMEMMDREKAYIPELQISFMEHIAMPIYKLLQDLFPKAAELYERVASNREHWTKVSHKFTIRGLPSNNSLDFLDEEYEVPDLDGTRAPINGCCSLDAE
Procedure: Preparation of 1*Rection Buffer: we took 1 mL 10*Rection Buffer, added 9 mL ultra-pure water to swirl and mix well, and put it on ice; preparation of PDE2 solution: 210 μL of 1*Rection Buffer were added into a centrifuge tube, then 30 μL PDE2 were added, mixed well, equal to 8-times dilution, and placed on ice; preparation of compound solution with gradient concentration: DMSO was used as the solvent to prepare 10 mM compound solution, and then diluted with 1*Rection Buffer.
We took 2 μL of the diluted compound solution of each concentration into the microplate, added 4 μL PDE2 solution, numbered them A1–A9, added 2 μL 1*Rection Buffer and 4 μL PDE2 into A10, added 2 μL compound solution and 4 μL 1*Rection Buffer to A11, added 6 μL 1*Rection Buffer to A13, and ensured the three groups are parallel to each other. […] The reaction time was 0.5 h in the microporous plate thermostatic oscillator.
Anti-Camp Alohascreen Acceptor and Streptavidin Coated Donor Bead were purchased from Perkin Elmer Company according to response volume: 1* Immunoassay Buffer 549.32 μL and 3.70 μL anti-cAMP AlohaScreen Acceptor were collected under dark conditions. We took 1.98 μL Streptavidin coated Donor Bead, mixed well, added 15 μL mixture to each well after 1 h reaction, and reacted it in the dark for 1 h. After the reaction, we tested it with multilabel microplate detector.

[2] = in vitro, Bio-cAMP as substrate, mean of at least three experiments

Row | IC50 [1, 2] [µM] | melting point [°C] | PDE2 inhibitory activity (result in words) [1] | PDE2 IC50 [1, 2] | SMILES
1 | > 50 | 113.1 to 115.5 |  |  | COc1ccc2c(c1)c(=O)oc1cc(OCC3CCCO3)ccc12 (centres unmarked) [Compound 2l, 8-Methoxy-3-((tetrahydrofuran-2-yl)methoxy)-6H-benzo[c]chromen-6-one]
2 | > 50 | 69.4 to 71.8 |  |  | CCCCCOc1ccc2c(c1)oc(=O)c1ccccc12 [Compound 1g, 3-(pentyloxy)-6H-benzo[c]chromen-6-one]
3 | > 50 | 141.1 to 143.8 |  |  | CCOc1ccc2c(c1)oc(=O)c1cc(OC)ccc12 [Compound 2b, 3-Ethoxy-8-methoxy-6H-benzo[c]chromen-6-one]
4 | > 50 | 135.6 to 137.8 |  |  | O=c1oc2cc(OCC3OCCO3)ccc2c2ccccc12 [Compound 1o, 3-((1,3-Dioxolan-2-yl)methoxy)-6H-benzo[c]chromen-6-one]
5 | > 50 | 164.3 to 166.6 |  |  | O=c1oc2cc(OCCn3cccn3)ccc2c2ccccc12 [Compound 1k, 3-(2-(1H-pyrazol-1-yl)ethoxy)-6H-benzo[c]chromen-6-one]
6 | > 50 | 147.9 to 150.1 |  |  | COc1ccc2c(c1)c(=O)oc1cc(OCC3OCCO3)ccc12 [Compound 2m, 3-((1,3-Dioxolan-2-yl)methoxy)-8-methoxy-6H-benzo[c]chromen-6-one]
7 | > 50 | 147 to 149.2 |  |  | O=c1oc2cc(OCc3ccc(CO)cc3)ccc2c2ccccc12 [Compound 1t, 3-((4-[Hydroxymethyl]benzyl)oxy)-6H-benzo[c]chromen-6-one]
8 | 25.4 ± 5.13 | 115.2 to 117.7 |  |  | CCOc1ccc2c(c1)oc(=O)c1ccccc12 [Compound 1b, Ethoxy-6H-benzo[c]chromen-6-one]
9 | > 50 |  |  |  | COc1ccc2c(c1)oc(=O)c1cc(OC)ccc12 [Compound 2a, 3,8-Dimethoxy-6H-benzo[c]chromen-6-one]
10 | > 50 | 159 to 161.1 |  |  | COc1ccc2c(c1)c(=O)oc1cc(OCCn3cccn3)ccc12 [Compound 2w, 3-(2-(1H-pyrazol-1-yl)ethoxy)-8-methoxy-6H-benzo[c]chromen-6-one]
11 | > 50 | 73.1 to 75.5 |  |  | CCCCCOc1ccc2c(c1)oc(=O)c1cc(OC)ccc12 [Compound 2f, 8-Methoxy-3-(pentyloxy)-6H-benzo[c]chromen-6-one]
12 |  | 212.3 to 214 |  |  | COc1ccc2c(c1)c(=O)oc1cc(Oc3ncccn3)ccc12 [Compound 2v, 8-Methoxy-3-(pyrimidin-2-yloxy)-6H-benzo[c]chromen-6-one]
13 | > 50 | 153.6 to 155.3 |  |  | COc1cc(COc2ccc3c(c2)oc(=O)c2cc(OC)ccc23)cc(OC)c1 [Compound 2s, 3-((3,5-Dimethoxybenzyl)oxy)-8-methoxy-6H-benzo[c]chromen-6-one]
14 | > 50 | 166.8 to 168 |  |  | COc1ccc2c(c1)c(=O)oc1cc(OCCO)ccc12 [Compound 2h, 3-(2-Hydroxyethoxy)-8-methoxy-6H-benzo[c]chromen-6-one]
15 | 28.8 ± 7.8 |  |  |  | COc1ccc2c(c1)oc(=O)c1ccccc12 [Compound 1a, 3-Methoxy-6H-benzo[c]chromen-6-one]
16 | 25.8 ± 5.45 | 58.7 to 59.1 |  |  | CC(C)Oc1ccc2c(c1)oc(=O)c1ccccc12 [Compound 1c, 3-Isopropoxy-6H-benzo[c]chromen-6-one]
17 | 30.3 ± 7.38 | 88.3 to 90.7 |  |  | COc1ccc2c(c1)c(=O)oc1cc(OC(C)C)ccc12 [Compound 2g, 3-Isopropoxy-8-methoxy-6H-benzo[c]chromen-6-one]
18 | > 50 | 125.7 to 126.4 |  |  | O=c1oc2cc(OCCO)ccc2c2ccccc12 [Compound 1m, 3-(2-Hydroxyethoxy)-6H-benzo[c]chromen-6-one]
19 |  | 203.6 to 204.9 |  | Insoluble | COc1ccc2c(c1)c(=O)oc1cc(OCc3ccccc3F)ccc12 [Compound 2t, 3-((2-Fluorobenzyl)oxy)-8-methoxy-6H-benzo[c]chromen-6-one]

Row | IC50 [1, 2] [µM] | melting point [°C] | PDE2 inhibitory activity (result in words) [1] | PDE2 IC50 [1, 2] | SMILES
20 | > 50 | 133.8 to 135 |  |  | COc1cc(COc2ccc3c(c2)oc(=O)c2ccccc23)cc(OC)c1 [Compound 1p, 3-((3,5-Dimethoxybenzyl)oxy)-6H-benzo[c]chromen-6-one]
21 | 19.3 ± 2.38 | 174 to 176.6 | good PDE2 inhibitory activity |  | O=c1oc2cc(Oc3ncccn3)ccc2c2ccccc12 [Compound 1l, 3-(Pyrimidin-2-yloxy)-6H-benzo[c]chromen-6-one]
22 | > 50 | 151.6 to 153.2 |  |  | COc1ccc2c(c1)c(=O)oc1cc(OCCC3OCCO3)ccc12 [Compound 2o, 3-(2-(1,3-Dioxolan-2-yl)ethoxy)-8-methoxy-6H-benzo[c]chromen-6-one]
23 | 23.3 ± 4.28 | 141.7 to 142.5 |  |  | COc1ccc2c(c1)c(=O)oc1cc(OCc3ccccc3)ccc12 [Compound 2q, 3-(Benzyloxy)-8-methoxy-6H-benzo[c]chromen-6-one]
24 | > 50 | 165.1 to 167.6 |  |  | Cc1cc(COc2ccc3c(c2)oc(=O)c2ccccc23)n(C)n1 [Compound 1q, 3-((1,3-Dimethyl-1H-pyrazol-5-yl)methoxy)-6H-benzo[c]chromen-6-one]
25 | > 50 | 139.8 to 140.1 |  |  | COc1ccc2c(c1)c(=O)oc1cc(OCC3CCCCC3)ccc12 [Compound 2n, 3-(Cyclohexylmethoxy)-8-methoxy-6H-benzo[c]chromen-6-one]
26 | > 50 |  |  |  | CCOC(=O)COc1ccc2c(c1)oc(=O)c1cc(OC)ccc12 [Compound 2j, Ethyl 2-((8-methoxy-6-oxo-6H-benzo[c]chromen-3-yl)oxy)acetate]
27 | > 50 | 100.8 to 102.8 |  |  | O=c1oc2cc(OCCN3CCOCC3)ccc2c2ccccc12 [Compound 1u, 3-(2-Morpholinoethoxy)-6H-benzo[c]chromen-6-one]
28 | 18.7 ± 2.72 | 124.7 to 125.8 | good PDE2 inhibitory activity |  | CCOC(=O)COc1ccc2c(c1)oc(=O)c1ccccc12 [Compound 1h, ethyl 2-((6-oxo-6H-benzo[c]chromen-3-yl)oxy)acetate]
29 | 27.5 ± 1.49 | 82.8 to 84.1 |  |  | O=c1oc2cc(OCC3CCCO3)ccc2c2ccccc12 (centres unmarked) [Compound 1n, 3-((Tetrahydrofuran-2-yl)methoxy)-6H-benzo[c]chromen-6-one]
30 | > 50 | 192.4 to 194.6 |  |  | COc1ccc2c(c1)c(=O)oc1cc(OCc3ccc(CO)cc3)ccc12 [Compound 2r, 3-((4-[Hydroxymethyl]benzyl)oxy)-8-methoxy-6H-benzo[c]chromen-6-one]
31 | > 50 | 109.3 to 111.6 |  |  | CCCOc1ccc2c(c1)oc(=O)c1cc(OC)ccc12 [Compound 2c, 8-Methoxy-3-propoxy-6H-benzo[c]chromen-6-one]
32 | 8.14 ± 0.54 | 90.6 to 91.2 | good PDE2 inhibitory activity |  | O=c1oc2cc(OCC3CCCC3)ccc2c2ccccc12 [Compound 1s, 3-(Cyclopentylmethoxy)-6H-benzo[c]chromen-6-one]
33 | 17.9 ± 1.87 | 133 to 134.8 | good PDE2 inhibitory activity |  | O=c1oc2cc(OCC3CCOCC3)ccc2c2ccccc12 [Compound 1i, 3-((tetrahydro-2H-pyran-4-yl)methoxy)-6H-benzo[c]chromen-6-one]
34 | > 50 |  |  |  | COc1ccc2c(c1)c(=O)oc1cc(OCC3CCCC3)ccc12 [Compound 2k, 3-(Cyclopentylmethoxy)-8-methoxy-6H-benzo[c]chromen-6-one]
35 | 29.4 ± 5.01 | 184.6 to 186.6 |  |  | COc1ccc2c(c1)c(=O)oc1cc(OCc3cc(C)nn3C)ccc12 [Compound 2u, 3-((1,3-Dimethyl-1H-pyrazol-5-yl)methoxy)-8-methoxy-6H-benzo[c]chromen-6-one]
36 | 25.2 ± 6.91 | 168.1 to 168.5 |  |  | COc1ccc2c(c1)c(=O)oc1cc(OCC3CCOCC3)ccc12 [Compound 2p, 8-Methoxy-3-((tetrahydro-2H-pyran-4-yl)methoxy)-6H-benzo[c]chromen-6-one]
37 | 27.6 ± 2.14 |  |  |  | O=c1oc2cc(OCc3cccnc3)ccc2c2ccccc12 [Compound 1r, 3-(Pyridin-3-ylmethoxy)-6H-benzo[c]chromen-6-one]
38 | > 50 |  |  |  | CCCOc1ccc2c(c1)oc(=O)c1ccccc12 [Compound 1d, 3-Propoxy-6H-benzo[c]chromen-6-one]

Row | SMILES | IC50 [1, 2] [µM] | melting point [°C] | PDE2 inhibitory activity (result in words) [1] | PDE2 IC50 [1, 2]
39 | CCC(C)Oc1ccc2c(c1)oc(=O)c1cc(OC)ccc12 (centres unmarked) [Compound 2d, 3-(Sec-butoxy)-8-methoxy-6H-benzo[c]chromen-6-one] | > 50 | 64.5 to 66.7 |  | 
40 | CCCCOc1ccc2c(c1)oc(=O)c1cc(OC)ccc12 [Compound 2e, 3-Butoxy-8-methoxy-6H-benzo[c]chromen-6-one] | 17.8 ± 4.07 | 102.5 to 104.4 | good PDE2 inhibitory activity | 
41 | COc1ccc2c(c1)c(=O)oc1cc(OCCSC)ccc12 [Compound 2i, 8-Methoxy-3-(2-(methylthio)ethoxy)-6H-benzo[c]chromen-6-one] | 14.9 ± 1.78 | 110.1 to 111.8 | best PDE2 inhibitory activity; also recorded: good PDE2 inhibitory activity | 
42 | CCC(C)Oc1ccc2c(c1)oc(=O)c1ccccc12 (centres unmarked) [Compound 1e, 3-(Sec-butoxy)-6H-benzo[c]chromen-6-one] | 37.7 ± 4.9 | 73.2 to 75.8 |  | 
